Measurements: paper PMC10046369, “Low-Affinity/High-Selectivity Dopamine Transport Inhibition Sufficient to Rescue Cognitive Functions in the Aging Rat” (Biomolecules, 2023)

Columns and labels:
Test in all cases: biochemical
Design in all cases: KINOMEscan competition binding panel, per cent of control
Settings in all cases: read-out: %Ctrl @ 2800nM
BMPR1B = BMPR1B (Homo sapiens, UniProt O00238)
Summary of the method: (§1)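 Values are expressed as percent of control, calculated as ((test − positive control)/(negative control − positive control)) × 100, so lower numbers mean stronger hits. Binding was measured by KINOMEscan competition assay in a 450-kinase human panel including disease mutants, using the contractor's validated protocol.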

MARK1 = MARK1 (Homo sapiens, UniProt Q9P0L2)
Summary of the method: as §1

EPHA6 = EPHA6 (Homo sapiens, UniProt Q9UF33)
Summary of the method: as §1

MAPKAPK2 = MAPKAPK2 (Homo sapiens, UniProt P49137)
Sequence of MAPKAPK2 (P49137 whole entry): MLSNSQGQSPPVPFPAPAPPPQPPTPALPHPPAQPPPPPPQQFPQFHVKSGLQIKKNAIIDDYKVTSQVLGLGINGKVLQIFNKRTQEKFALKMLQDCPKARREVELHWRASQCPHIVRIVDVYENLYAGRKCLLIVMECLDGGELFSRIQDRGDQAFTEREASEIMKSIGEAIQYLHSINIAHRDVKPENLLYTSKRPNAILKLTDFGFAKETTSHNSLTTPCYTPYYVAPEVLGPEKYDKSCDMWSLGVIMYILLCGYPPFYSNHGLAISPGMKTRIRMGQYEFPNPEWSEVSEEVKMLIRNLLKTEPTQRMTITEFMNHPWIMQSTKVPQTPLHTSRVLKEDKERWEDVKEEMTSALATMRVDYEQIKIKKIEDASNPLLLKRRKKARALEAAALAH
Summary of the method: as §1

CDK9 = CDK9 (Homo sapiens, UniProt P50750)
Sequence of CDK9 (P50750 whole entry): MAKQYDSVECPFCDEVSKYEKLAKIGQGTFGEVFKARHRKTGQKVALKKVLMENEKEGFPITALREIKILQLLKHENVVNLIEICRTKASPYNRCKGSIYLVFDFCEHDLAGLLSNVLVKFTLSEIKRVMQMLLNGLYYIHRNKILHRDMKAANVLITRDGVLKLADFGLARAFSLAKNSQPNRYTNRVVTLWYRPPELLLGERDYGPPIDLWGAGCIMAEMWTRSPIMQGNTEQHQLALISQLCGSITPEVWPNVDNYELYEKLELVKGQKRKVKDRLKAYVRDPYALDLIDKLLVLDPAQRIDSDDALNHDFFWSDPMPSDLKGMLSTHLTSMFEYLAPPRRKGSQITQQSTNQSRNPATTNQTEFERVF
Summary of the method: as §1

EPHB4 = EPHB4 (Homo sapiens, UniProt P54760)
Summary of the method: as §1

MYLK = MYLK (Homo sapiens, UniProt Q15746)
Summary of the method: as §1

EIF2AK1 = EIF2AK1 (Homo sapiens, UniProt Q9BQI3)
Summary of the method: as §1

ERBB3 = ERBB3 (Homo sapiens, UniProt P21860)
Summary of the method: as §1

LYN = LYN (Homo sapiens, UniProt P07948)
Summary of the method: as §1

LATS1 = LATS1 (Homo sapiens, UniProt O95835)
Summary of the method: as §1

PKAC-alpha = molecular target: T1, PKAC-alpha (Homo sapiens, UniProt P17612)
T1 construct: gene PRKACA
Summary of the method: as §1

CASK = CASK (Homo sapiens, UniProt O14936)
Sequence of CASK (O14936 whole entry): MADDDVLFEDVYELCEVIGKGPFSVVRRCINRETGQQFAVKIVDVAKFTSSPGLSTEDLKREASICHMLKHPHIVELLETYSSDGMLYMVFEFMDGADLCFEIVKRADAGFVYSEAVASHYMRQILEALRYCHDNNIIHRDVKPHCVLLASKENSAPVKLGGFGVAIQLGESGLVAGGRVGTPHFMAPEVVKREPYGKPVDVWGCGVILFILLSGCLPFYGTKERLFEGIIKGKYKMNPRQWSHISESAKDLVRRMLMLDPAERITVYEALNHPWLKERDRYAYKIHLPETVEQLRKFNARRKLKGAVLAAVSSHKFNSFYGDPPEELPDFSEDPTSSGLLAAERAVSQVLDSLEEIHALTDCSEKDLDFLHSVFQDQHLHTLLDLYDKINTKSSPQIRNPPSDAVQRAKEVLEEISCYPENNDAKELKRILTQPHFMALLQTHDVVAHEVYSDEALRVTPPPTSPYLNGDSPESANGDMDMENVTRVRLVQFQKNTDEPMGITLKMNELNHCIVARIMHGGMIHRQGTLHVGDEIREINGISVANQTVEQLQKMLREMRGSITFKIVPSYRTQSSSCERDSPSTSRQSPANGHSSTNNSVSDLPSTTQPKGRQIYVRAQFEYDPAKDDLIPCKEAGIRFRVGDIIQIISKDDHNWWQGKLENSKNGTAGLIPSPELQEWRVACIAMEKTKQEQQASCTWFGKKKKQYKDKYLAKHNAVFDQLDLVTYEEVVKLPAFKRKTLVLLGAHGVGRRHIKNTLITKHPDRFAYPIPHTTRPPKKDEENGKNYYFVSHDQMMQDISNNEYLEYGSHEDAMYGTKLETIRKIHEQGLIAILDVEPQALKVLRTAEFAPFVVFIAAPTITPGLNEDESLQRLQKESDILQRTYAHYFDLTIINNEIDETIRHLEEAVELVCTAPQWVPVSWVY
Summary of the method: as §1

CTK = molecular target: T2, CTK (Homo sapiens, UniProt P42679)
T2 construct: gene MATK
Summary of the method: as §1

[1] = molecular target: T3, RSK1(Kin.Dom.2-C-terminal) (Homo sapiens, UniProt Q15418)
T3 construct: gene RPS6KA1; Kin.Dom.2-C-terminal
Summary of the method: as §1

ERBB4 = ERBB4 (Homo sapiens, UniProt Q15303)
Summary of the method: as §1

TRKB = molecular target: T4, TRKB (Homo sapiens, UniProt Q16620)
T4 construct: gene NTRK2
Summary of the method: as §1

SRPK2 = SRPK2 (Homo sapiens, UniProt P78362)
Summary of the method: as §1

MKK7 = molecular target: T5, MKK7 (Homo sapiens, UniProt O14733)
T5 construct: gene MAP2K7
Summary of the method: as §1

DLK = molecular target: T6, DLK (Homo sapiens, UniProt Q12852)
T6 construct: gene MAP3K12
Summary of the method: as §1

PIK3CA(E545A) = PIK3CA(E545A) (Homo sapiens, UniProt P42336, E545A)
Sequence of PIK3CA(E545A) (P42336 whole entry E545A): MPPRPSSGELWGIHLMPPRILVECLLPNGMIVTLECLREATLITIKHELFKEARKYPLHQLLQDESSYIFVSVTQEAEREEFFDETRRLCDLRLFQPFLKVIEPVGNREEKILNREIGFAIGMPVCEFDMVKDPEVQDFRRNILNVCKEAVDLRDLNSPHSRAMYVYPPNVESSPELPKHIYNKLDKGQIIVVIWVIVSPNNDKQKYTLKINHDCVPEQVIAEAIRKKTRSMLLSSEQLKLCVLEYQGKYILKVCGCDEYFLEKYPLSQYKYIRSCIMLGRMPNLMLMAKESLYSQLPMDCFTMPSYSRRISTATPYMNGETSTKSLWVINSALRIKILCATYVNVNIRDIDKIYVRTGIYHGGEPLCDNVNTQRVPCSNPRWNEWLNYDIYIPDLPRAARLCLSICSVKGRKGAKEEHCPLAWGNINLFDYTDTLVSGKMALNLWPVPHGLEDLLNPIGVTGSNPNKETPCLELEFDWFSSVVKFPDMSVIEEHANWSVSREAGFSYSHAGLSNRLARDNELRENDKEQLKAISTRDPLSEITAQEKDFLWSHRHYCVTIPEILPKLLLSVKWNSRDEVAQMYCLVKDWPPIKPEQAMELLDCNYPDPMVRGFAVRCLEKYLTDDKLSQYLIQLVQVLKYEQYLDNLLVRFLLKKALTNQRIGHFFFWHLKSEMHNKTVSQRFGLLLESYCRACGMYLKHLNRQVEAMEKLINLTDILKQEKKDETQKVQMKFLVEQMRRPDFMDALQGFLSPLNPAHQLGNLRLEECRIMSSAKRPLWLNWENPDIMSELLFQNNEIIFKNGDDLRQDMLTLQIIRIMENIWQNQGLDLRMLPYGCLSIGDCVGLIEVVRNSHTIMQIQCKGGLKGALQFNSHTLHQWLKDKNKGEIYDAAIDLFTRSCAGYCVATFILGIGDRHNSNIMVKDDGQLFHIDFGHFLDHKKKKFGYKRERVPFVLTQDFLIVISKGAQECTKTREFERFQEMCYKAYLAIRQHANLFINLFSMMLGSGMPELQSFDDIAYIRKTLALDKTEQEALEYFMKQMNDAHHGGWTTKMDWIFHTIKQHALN
Summary of the method: as §1

IKK-beta = molecular target: T7, IKK-beta (Homo sapiens, UniProt O14920)
T7 construct: gene IKBKB
T7 sequence (O14920 whole entry): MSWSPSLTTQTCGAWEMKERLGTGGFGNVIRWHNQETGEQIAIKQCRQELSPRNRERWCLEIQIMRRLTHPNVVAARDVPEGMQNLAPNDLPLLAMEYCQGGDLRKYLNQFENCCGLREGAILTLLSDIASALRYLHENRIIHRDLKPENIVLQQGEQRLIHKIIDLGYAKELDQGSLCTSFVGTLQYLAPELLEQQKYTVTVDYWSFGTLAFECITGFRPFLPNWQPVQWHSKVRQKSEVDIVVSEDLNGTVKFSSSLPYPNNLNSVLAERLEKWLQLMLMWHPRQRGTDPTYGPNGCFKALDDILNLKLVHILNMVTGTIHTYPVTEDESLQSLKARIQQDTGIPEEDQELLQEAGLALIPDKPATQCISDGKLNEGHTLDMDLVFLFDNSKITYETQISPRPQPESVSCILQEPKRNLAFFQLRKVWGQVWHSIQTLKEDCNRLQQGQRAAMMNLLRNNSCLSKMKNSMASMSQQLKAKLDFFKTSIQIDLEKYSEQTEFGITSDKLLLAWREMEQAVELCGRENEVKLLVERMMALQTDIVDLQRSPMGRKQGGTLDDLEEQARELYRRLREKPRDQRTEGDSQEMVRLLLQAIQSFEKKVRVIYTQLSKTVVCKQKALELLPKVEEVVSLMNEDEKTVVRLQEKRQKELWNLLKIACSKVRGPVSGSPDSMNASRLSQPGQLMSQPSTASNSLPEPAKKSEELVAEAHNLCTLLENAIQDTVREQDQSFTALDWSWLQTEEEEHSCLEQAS
Summary of the method: as §1

DAPK3 = DAPK3 (Homo sapiens, UniProt O43293)
Summary of the method: as §1

p38-alpha = molecular target: T8, p38-alpha (Homo sapiens, UniProt Q16539)
T8 construct: gene MAPK14
T8 sequence (Q16539 whole entry): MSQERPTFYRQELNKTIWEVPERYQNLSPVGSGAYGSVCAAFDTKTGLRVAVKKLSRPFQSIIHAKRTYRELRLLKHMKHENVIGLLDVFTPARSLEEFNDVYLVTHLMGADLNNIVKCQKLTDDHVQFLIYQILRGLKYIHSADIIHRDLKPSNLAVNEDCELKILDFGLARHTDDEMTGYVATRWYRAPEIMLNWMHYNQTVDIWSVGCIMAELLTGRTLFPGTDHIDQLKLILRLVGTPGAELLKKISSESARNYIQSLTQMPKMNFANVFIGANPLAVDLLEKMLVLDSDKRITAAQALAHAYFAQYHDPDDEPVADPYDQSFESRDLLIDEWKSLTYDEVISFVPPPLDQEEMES
Summary of the method: as §1

[2] = molecular target: T9, JAK3(JH1domain-catalytic) (Homo sapiens, UniProt P52333)
T9 construct: JH1domain-catalytic
T9 sequence (P52333 whole entry): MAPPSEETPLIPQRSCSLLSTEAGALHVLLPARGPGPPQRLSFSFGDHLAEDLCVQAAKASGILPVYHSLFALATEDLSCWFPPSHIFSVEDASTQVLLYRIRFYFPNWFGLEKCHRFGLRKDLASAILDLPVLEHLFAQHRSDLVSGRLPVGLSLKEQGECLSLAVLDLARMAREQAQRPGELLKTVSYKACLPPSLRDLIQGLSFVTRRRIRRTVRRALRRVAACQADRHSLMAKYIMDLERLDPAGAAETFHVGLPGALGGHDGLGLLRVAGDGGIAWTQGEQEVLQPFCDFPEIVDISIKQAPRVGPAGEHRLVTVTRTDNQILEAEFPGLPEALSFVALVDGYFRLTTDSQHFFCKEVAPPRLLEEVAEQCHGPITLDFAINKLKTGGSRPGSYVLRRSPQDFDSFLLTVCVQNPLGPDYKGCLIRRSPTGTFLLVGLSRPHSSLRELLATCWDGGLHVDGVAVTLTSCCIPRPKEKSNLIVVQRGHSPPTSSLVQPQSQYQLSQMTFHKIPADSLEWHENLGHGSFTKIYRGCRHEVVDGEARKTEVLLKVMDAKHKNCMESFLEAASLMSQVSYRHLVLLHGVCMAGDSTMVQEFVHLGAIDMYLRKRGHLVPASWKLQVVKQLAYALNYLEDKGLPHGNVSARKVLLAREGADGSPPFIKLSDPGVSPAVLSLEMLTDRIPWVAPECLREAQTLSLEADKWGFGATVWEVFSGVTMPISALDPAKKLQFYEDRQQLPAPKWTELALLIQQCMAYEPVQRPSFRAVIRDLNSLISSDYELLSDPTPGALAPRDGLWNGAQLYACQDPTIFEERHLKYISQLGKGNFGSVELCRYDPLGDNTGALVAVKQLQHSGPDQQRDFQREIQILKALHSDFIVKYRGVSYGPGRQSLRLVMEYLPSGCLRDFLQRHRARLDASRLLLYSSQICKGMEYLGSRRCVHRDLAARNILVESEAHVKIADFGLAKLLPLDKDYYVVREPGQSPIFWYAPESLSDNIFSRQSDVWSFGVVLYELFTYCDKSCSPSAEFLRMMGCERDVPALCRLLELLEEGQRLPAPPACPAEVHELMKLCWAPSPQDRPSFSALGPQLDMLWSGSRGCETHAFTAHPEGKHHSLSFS
Summary of the method: as §1

ACVR2A = ACVR2A (Homo sapiens, UniProt P27037)
Summary of the method: as §1

`[O-][S@@+](Cc1cncs1)C(c1ccccc1)c1ccccc1` [S-CE-123, (S)-5-((Benzhydrylsulfinyl)Methyl)Thiazole] was tested, and the remaining binding at 2.8 µM (BMPR1B) was 100%, the remaining binding at 2.8 µM (MARK1) was 93% and the remaining binding at 2.8 µM (EPHA6) was 100%. For the same molecule, the remaining binding at 2.8 µM (MAPKAPK2) was 99%, the remaining binding at 2.8 µM (CDK9) was 92% and the remaining binding at 2.8 µM (EPHB4) was 95%. It also gave a remaining binding at 2.8 µM (MYLK) of 96%, a remaining binding at 2.8 µM (EIF2AK1) of 100% and a remaining binding at 2.8 µM (ERBB3) of 89%. It also gave a remaining binding at 2.8 µM (LYN) of 83%, a remaining binding at 2.8 µM (LATS1) of 93% and a remaining binding at 2.8 µM (PKAC-alpha) of 95%. The remaining binding at 2.8 µM (CASK) was 82%, the remaining binding at 2.8 µM (CTK) was 51% and the remaining binding at 2.8 µM [1] was 92%. For the same molecule, the remaining binding at 2.8 µM (ERBB4) was 96%, the remaining binding at 2.8 µM (TRKB) was 100% and the remaining binding at 2.8 µM (SRPK2) was 76%. It also gave a remaining binding at 2.8 µM (MKK7) of 100%, a remaining binding at 2.8 µM (DLK) of 100% and a remaining binding at 2.8 µM (PIK3CA(E545A)) of 93%. For the same molecule, the remaining binding at 2.8 µM (IKK-beta) was 96%, the remaining binding at 2.8 µM (DAPK3) was 96% and the remaining binding at 2.8 µM (p38-alpha) was 100%. The remaining binding at 2.8 µM [2] was 100% and the remaining binding at 2.8 µM (ACVR2A) was 100%.
